Series [1] has as its system Sprague Dawley (SD) rats. In words: ASSAY (I) efficacy testing on appetite (food intake) using an ad libitum fed rat model. Format: in vivo. The settings on record: rat, 30 nmol/kg. An outline of the steps: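 Ad libitum fed SD rats (200–250 g) were housed singly on a reversed light/dark cycle and given one 0.01–3 mg/kg dose ip, po or sc just before lights-off, with 5–8 per dose group plus vehicle controls. Food intake was recorded hourly for 7 h, then at 24 h and sometimes 48 h; Grubbs outliers were excluded.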

The nature of series [2]: ASSAY (III) ThT fibrillation assay for physical stability. In kind it is physicochemical. An outline of the steps:
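Formulations with 1 μM ThT, pH adjusted as required, incubated at 37 °C with 960 rpm orbital shaking; fluorescence (ex 444/em 485 nm) read every 20 min. Fibrillation reported as mean ThT fluorescence ± SD of 4–8 replicates at time points; polypeptide concentration measured by reverse-phase HPLC before and after, post-centrifugation.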

Series [3] can be described thus: ASSAY (IV) determination of solubility. Format: physicochemical. An outline of the steps: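 Polypeptide in water at […] mixed 1:1 with 100 mM buffers of pH 3.0-8.0 (glycylglycine pH 3-5, bistrispropane pH 6-8). Held 18 h at room temperature, then centrifuged; concentration remaining in solution measured by UPLC.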
[4] abbreviates: bistrispropane buffer, pH 6.5, read-out: Solubility pH 6.5 Concentration.
Where [5] appears, read: bistrispropane buffer, pH 7.5, read-out: Solubility pH 7.5 Concentration.
[6] abbreviates: bistrispropane buffer, pH 6.0, read-out: Solubility pH 6.0 Concentration.
[7] abbreviates: bistrispropane buffer, pH 7.0, read-out: Solubility pH 7.0 Concentration.
Setting [8] is: bistrispropane buffer, pH 8.0, read-out: Solubility pH 8.0 Concentration.
[9] abbreviates: glycylglycine buffer, pH 3.0, read-out: Solubility pH 3.0 Concentration.
[10] abbreviates: glycylglycine buffer, pH 4.0, read-out: Solubility pH 4.0 Concentration.
Where [11] appears, read: glycylglycine buffer, pH 5.0, read-out: Solubility pH 5.0 Concentration.

Values after ≈ are worked out from the molar mass of the structure shown. Where two headings read alike, the source gives them in different places. Numbered stars: 1 amine (or outer) side, 2 acyl side, 3 side chain; on linkers, the order of the positions; unused ones are H or OH. Bridge positions count the residues as written; N and C are the ends. Side chains are listed from the residue outwards. Peptide text beside a SMILES is read from it. * marks the point of attachment. C20 diacid = O=C(O)CCCCCCCCCCCCCCCCCCC(=O)*; γGlu = O=C(O)[C@H](CCC(=O)[*:2])N[*:1]

In the case of `CC[C@H](C)[C@H](NC(=O)[C@H](C)NC(=O)CNC(=O)[C@H](Cc1ccccc1)NC(=O)[C@H](CC(N)=O)NC(=O)[C@@H]1CCCN1C(=O)[C@H](CO)NC(=O)[C@H](CO)NC(=O)[C@H](Cc1c[nH]cn1)NC(=O)[C@H](CCCNC(=N)N)NC(=O)[C@H](CC(C)C)NC(=O)[C@H](Cc1ccccc1)NC(=O)[C@H](Cc1c[nH]cn1)NC(=O)[C@H](C)NC(=O)[C@H](CC(C)C)NC(=O)[C@H](CCCNC(=N)N)NC(=O)[C@H](CCC(N)=O)NC(=O)[C@@H](NC(=O)[C@H](C)NC(=O)[C@@H]1CSSC[C@H](NC(=O)[C@H](CCCCN)NC(=O)CC[C@H](NC(=O)CCCCCCCCCCCCCCCCCCC(=O)O)C(=O)O)C(=O)N[C@@H](CC(N)=O)C(=O)N[C@@H]([C@@H](C)O)C(=O)N[C@@H](C)C(=O)N[C@@H]([C@@H](C)O)C(=O)N1)[C@@H](C)O)C(=O)N1CCC[C@H]1C(=O)N[C@@H](CO)C(=O)N[C@@H](CO)C(=O)N[C@H](C(=O)N[C@@H](CC(N)=O)C(=O)N[C@H](C(=O)NCC(=O)N[C@@H](CO)C(=O)N[C@@H](CCC(=O)O)C(=O)N[C@H](C(=O)N[C@@H](Cc1ccc(O)cc1)C(N)=O)[C@@H](C)O)C(C)C)[C@@H](C)O` [Example 30] ({C20 diacid-γGlu}-KCNTATCATQRLAHFLRHSSPNFGAIPSSTNVGSETY-NH2; disulfide 2-7), the “Food intake reduction 0-24 h 30 nmol/kg (%)” value in series [1] came to 41%. Further, in series [1], the “Food intake reduction 24-48 h 30 nmol/kg (%)” value turned out to be 17%. Besides, in series [2], the “ThT pH 4.0 lag time (h)” value is on record as 16 h. The solubility at 18 h in series [3] (setting [4]), in series [3] (setting [5]), in series [3] (setting [6]), in series [3] (setting [7]), in series [3] (setting [8]) and in series [3] (setting [9]) was not below 200 µM each time. In addition, the solubility at 18 h in series [3] (setting [10]) and in series [3] (setting [11]) was not below 200 µM each time.

For `CC[C@H](C)[C@H](NC(=O)[C@H](C)NC(=O)CNC(=O)[C@H](Cc1ccccc1)NC(=O)[C@H](CC(N)=O)NC(=O)[C@@H]1CCCN1C(=O)[C@H](CO)NC(=O)[C@H](CO)NC(=O)[C@H](Cc1c[nH]cn1)NC(=O)[C@H](CCCNC(=N)N)NC(=O)[C@H](CC(C)C)NC(=O)[C@H](Cc1ccccc1)NC(=O)[C@H](CC(N)=O)NC(=O)[C@H](C)NC(=O)[C@H](CC(C)C)NC(=O)[C@H](CCCNC(=N)N)NC(=O)[C@H](CCC(N)=O)NC(=O)[C@@H](NC(=O)[C@H](C)NC(=O)[C@@H]1CSSC[C@H](NC(=O)[C@@H](N)CCCCNC(=O)CC[C@H](NC(=O)CC[C@H](NC(=O)CCCCCCCCCCCCCCCCCCC(=O)O)C(=O)O)C(=O)O)C(=O)N[C@@H](CC(N)=O)C(=O)N[C@@H]([C@@H](C)O)C(=O)N[C@@H](C)C(=O)N[C@@H]([C@@H](C)O)C(=O)N1)[C@@H](C)O)C(=O)N1CCC[C@H]1C(=O)N[C@@H](CO)C(=O)N[C@@H](CO)C(=O)N[C@H](C(=O)N[C@@H](CC(N)=O)C(=O)N[C@H](C(=O)NCC(=O)N[C@@H](Cc1c[nH]cn1)C(=O)N[C@@H](CC(N)=O)C(=O)N[C@H](C(=O)N[C@@H](Cc1ccc(O)cc1)C(N)=O)[C@@H](C)O)C(C)C)[C@@H](C)O` [Example 86] (H-K([γGlu-γGlu-C20 diacid])CNTATCATQRLANFLRHSSPNFGAIPSSTNVGHNTY-NH2; disulfide 2-7), the “Food intake reduction 0-24 h 30 nmol/kg (%)” value in series [1] is recorded as 48%. In series [1], the “Food intake reduction 24-48 h 30 nmol/kg (%)” value amounted to 26%. Besides, in series [2], the “ThT pH 4.0 lag time (h)” value was found to be 32 h. In addition, the solubility at 18 h in series [3] (setting [4]) is not below 200 µM; in series [3] (setting [5]) it was 157 µM (≈ 716 µg/mL); in series [3] (setting [6]), not below 200 µM; in series [3] (setting [7]), not below 200 µM; in series [3] (setting [8]), not below 200 µM; in series [3] (setting [9]), not below 200 µM. Besides, the solubility at 18 h in series [3] (setting [10]) and in series [3] (setting [11]) was not below 200 µM in each case.

For the origin of these results see patent US9023789B2, “Amylin analogs and pharmaceutical compositions thereof” (Novo Nordisk A/S, priority 2012, dated 2015).
